Data from ChEMBL document CHEMBL1132959, “Design of potent dicyclic (1-5/4-10) gonadotropin releasing hormone (GnRH) antagonists” (J Med Chem, 2000).

target: T1, Gonadotropin-releasing hormone receptor (Rattus norvegicus, UniProt P30969); experiment: Affinity for rat gonadotrophin releasing hormone (GnRH) receptor using HEK293 cells transfected with rat Gonadotropin-releasing hormone receptor; assay type: cell-based; settings: not given
T1 sequence (P30969 whole entry): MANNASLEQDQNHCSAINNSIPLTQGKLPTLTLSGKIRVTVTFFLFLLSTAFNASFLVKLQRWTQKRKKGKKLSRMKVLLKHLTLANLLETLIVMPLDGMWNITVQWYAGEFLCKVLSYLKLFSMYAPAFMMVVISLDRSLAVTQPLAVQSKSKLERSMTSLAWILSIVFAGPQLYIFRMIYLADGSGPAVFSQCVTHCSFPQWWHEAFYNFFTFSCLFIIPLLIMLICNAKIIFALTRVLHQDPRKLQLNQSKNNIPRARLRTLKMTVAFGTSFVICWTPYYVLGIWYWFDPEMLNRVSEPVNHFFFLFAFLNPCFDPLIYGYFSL

SMILES	Ki
CC(=O)N[C@H](Cc1ccc2ccccc2c1)C(=O)N[C@H](Cc1ccc(Cl)cc1)C(=O)N[C@@H]1CSSC[C@@H](C(=O)N2CCC[C@H]2C(=O)N[C@H](C)C(N)=O)NC(=O)[C@H](CC(C)C)NC(=O)[C@@H](Cc2ccc3ccccc3c2)NC(=O)[C@H](CCCN=C(N)N)NC(=O)[C@H](C)NC1=O	9.9 nM
CC(=O)N[C@H](Cc1ccc2ccccc2c1)C(=O)N[C@H](Cc1ccc(Cl)cc1)C(=O)N[C@@H]1CC(=O)NCC[C@@H](C(=O)N2CCC[C@H]2C(=O)N[C@H](C)C(N)=O)NC(=O)[C@H](CC(C)C)NC(=O)[C@@H](Cc2ccc3ccccc3c2)NC(=O)[C@H](CCCNC(=N)N)NC(=O)[C@H](C)NC1=O	13 nM
CC(=O)N[C@H](Cc1ccc2ccccc2c1)C(=O)N[C@H](Cc1ccc(Cl)cc1)C(=O)N[C@@H]1CC(=O)NCCCC[C@@H](C(=O)N2CCC[C@H]2C(=O)N[C@H](C)C(N)=O)NC(=O)[C@H](CC(C)C)NC(=O)[C@@H](Cc2ccc3ccccc3c2)NC(=O)[C@H](CCCN=C(N)N)NC(=O)[C@H](C)NC1=O	2.3 nM

same assay, conditions: hek293

SMILES	Ki
CC(=O)N[C@H](Cc1ccc2ccccc2c1)C(=O)N[C@H](Cc1ccc(Cl)cc1)C(=O)N[C@@H]1CCC(=O)NCCCC[C@@H](C(=O)N2CCC[C@H]2C(=O)N[C@H](C)C(N)=O)NC(=O)[C@H](CC(C)C)NC(=O)[C@@H](Cc2ccc3ccccc3c2)NC(=O)[C@H](CCCNC(=N)N)NC(=O)[C@H](CO)NC1=O	23 nM
CC(=O)N[C@H](Cc1ccc2ccccc2c1)C(=O)N[C@@H]1CCC(=O)NCCCC[C@@H]2NC(=O)[C@H](CC(C)C)NC(=O)[C@@H](Cc3ccc4ccccc4c3)NC(=O)[C@H](CCCN=C(N)N)NC(=O)[C@H](CC(=O)NC[C@@H](C(N)=O)NC(=O)[C@@H]3CCCN3C2=O)NC(=O)[C@@H](Cc2cccnc2)NC1=O	15 nM
CC(=O)N[C@H](Cc1ccc2ccccc2c1)C(=O)N[C@@H]1CCC(=O)NCCCC[C@@H](C(=O)N2CCC[C@H]2C(=O)N[C@H](C)C(N)=O)NC(=O)[C@H](CC(C)C)NC(=O)[C@@H](Cc2ccc3ccccc3c2)NC(=O)[C@H](CCCN=C(N)N)NC(=O)[C@H](C)NC(=O)[C@@H](Cc2cccnc2)NC1=O	110 nM
CC(=O)N[C@H](Cc1ccc2ccccc2c1)C(=O)N[C@H](Cc1ccc(F)cc1)C(=O)N[C@H](Cc1cccnc1)C(=O)N[C@H]1CC(=O)NC[C@@H](C(N)=O)NC(=O)[C@@H]2CCCN2C(=O)[C@@H]2CCNC(=O)CNC(=O)CC[C@H](NC1=O)C(=O)N[C@H](CCCN=C(N)N)C(=O)N[C@@H](CC(C)C)C(=O)N2	0.12 nM
CC(C)C[C@@H]1NC(=O)[C@@H](Cc2ccc3ccccc3c2)NC(=O)[C@H](CCCNC(=N)N)NC(=O)[C@H](C)NC(=O)[C@@H](Cc2cccnc2)NC(=O)[C@@H](Cc2ccc(Cl)cc2)NC(=O)[C@@H](Cc2ccc3ccccc3c2)NC(=O)CCC(=O)NCCCC[C@@H](C(=O)N2CCC[C@H]2C(=O)N[C@H](C)C(N)=O)NC1=O	21 nM
CC(=O)N[C@H](Cc1ccc2ccccc2c1)C(=O)N[C@H](Cc1ccc(Cl)cc1)C(=O)N[C@@H]1CC(=O)NCCCC[C@@H]2NC(=O)[C@H](CC(C)C)NC(=O)[C@@H](Cc3ccc4ccccc4c3)NC(=O)[C@H](CCCNC(=N)N)NC(=O)[C@H](CC(=O)NC[C@@H](C(N)=O)NC(=O)[C@@H]3CCCN3C2=O)NC1=O	11 nM
CC(=O)N[C@H](Cc1ccc2ccccc2c1)C(=O)N[C@@H]1CC(=O)NC[C@@H](C(=O)N2CCC[C@H]2C(=O)N[C@H](C)C(N)=O)NC(=O)[C@H](CC(C)C)NC(=O)[C@@H](Cc2ccc3ccccc3c2)NC(=O)[C@H](CCCNC(=N)N)NC(=O)[C@H](C)NC(=O)[C@@H](Cc2cccnc2)NC1=O	67 nM

Continued, values first:

Ki	SMILES
0.32 nM	CC(=O)N[C@H](Cc1ccc2ccccc2c1)C(=O)N[C@H](Cc1ccc(F)cc1)C(=O)N[C@H](Cc1c[nH]c2ccccc12)C(=O)N[C@H]1CC(=O)NC[C@@H](C(N)=O)NC(=O)[C@@H]2CCCN2C(=O)[C@@H]2CCCCNC(=O)CC[C@H](NC1=O)C(=O)N[C@H](CCCN=C(N)N)C(=O)N[C@@H](CC(C)C)C(=O)N2
17 nM	CC(=O)N[C@H](Cc1ccc2ccccc2c1)C(=O)N[C@H](Cc1ccc(Cl)cc1)C(=O)N[C@@H]1CC(=O)NCCCC[C@@H]2NC(=O)[C@H](CC(C)C)NC(=O)[C@@H](CCCNC(=N)N)NC(=O)[C@H](Cc3ccc(O)cc3)NC(=O)[C@H](CC(=O)NC[C@@H](C(N)=O)NC(=O)[C@@H]3CCCN3C2=O)NC1=O
3.1 nM	CC(=O)N[C@H]1CC(=O)NCC(=O)NCC[C@H]2NC(=O)[C@H](CC(=O)NC[C@@H](C(N)=O)NC(=O)[C@@H]3CCCN3C(=O)[C@H](CCCN=C(N)N)NC(=O)[C@H](CC(C)C)NC(=O)[C@@H](Cc3ccc4ccccc4c3)NC2=O)NC(=O)[C@@H](Cc2c[nH]c3ccccc23)NC(=O)[C@@H](Cc2ccc(Cl)cc2)NC1=O
